Measured values published in patent US7592367B2, “Compounds from Garcinia hanburyi, their use in treating cancer and method of separating epimers thereof” (priority 2005, dated 2009).
Where two headings read alike, the source gives them in different places.

How the values were obtained:
[1] = system: human leukemia K562 (K562/S) cell line
Experimental: (§1) Cytotoxicity Assay: Both epimers were tested for their cytotoxicities against human leukemia K562 (K562/S) and doxorubicin-resistant K562 (K562/R) cell lines, using the SRB method previously described with doxorubicin being the positive control. The OD data were recorded in X±S, and the IC50 values were calculated with sigmoidal plot.

[2] = system: doxorubicin-resistant K562 (K562/R) cell line
Experimental: as §1

[3] = system: human leukemia K562 (K562/S) cell line; experiment: MTT cytotoxicity assay, doxorubicin-sensitive K562
Experimental: Both doxorubicin-resistant (K562/R) and -sensitive K562 (K562/S) cell sublines, purchased from Tianjin Instute of Hematopathy, the Chinese Academy of Medical Sciences, China, were cultured in PRMI1640 (Gibco, USA) medium and supplemented with 10 fetal bovine serums at 37° C. in a humidified incubator with 5% CO2. MTT assay was performed using a reported method [12]. Cell lines were seeded into 96-well plates at 6000 viable cells per well. The test chemicals (ADR, DMSO, Th1 and Th2) with different concentrations were loaded in a final volume of 200 μL per well. After 44 hours of incubation, MTT (5 g/L) was added to each well in a volume of 10 μl and incubated for 4 hours. Afterwards, the medium was removed and 200 μl of Me2SO (37° C.) was added and shaken for 5 minutes. A 96-well microtiter plate reader was used to determine absorbance values at 570 nm. Mean value of each concentration (n=3 wells) was obtained. Absorbance of untreated controls was taken as 100%. Survival rate was calculated as follows: Cell survival rate (%)=(T−B)/(U−B)×100%, T (treated) is absorbance of chemically treated cells, U (untreated) is the absorbance of untreated cells, and B (blank) is the absorbance when neither cells nor chemicals was added.

[4] = system: human cytochrome P-450 enzymes (1A2, 2A6, 2D6, 2E1, 3A4); experiment: CYP inhibition in human liver microsomes, five isoforms other than CYP2C9; type: in vitro ADME; details: probe reactions
[5] = system: doxorubicin-resistant K562 (K562/R) cell line; experiment: MTT cytotoxicity assay, doxorubicin-resistant K562; type: cell-based, human; details: read-out: Cytotoxicity IC50 against K562/R
Experimental: MTT assay was performed using a reported method. […] Absorbance of untreated controls was taken as 100%. […] An aliquot of the supernatant was analyzed by HPLC.

CYP2C9 = molecular target: T1, CYP2C9 (Homo sapiens, UniProt P11712); type: in vitro ADME; details: microsomes
T1 construct: HLM were prepared from liver tissue as described in the literature [13]; from tissue; host or cells: human liver microsomes prepared from an autopsy liver sample (person)
T1 sequence (P11712 whole entry): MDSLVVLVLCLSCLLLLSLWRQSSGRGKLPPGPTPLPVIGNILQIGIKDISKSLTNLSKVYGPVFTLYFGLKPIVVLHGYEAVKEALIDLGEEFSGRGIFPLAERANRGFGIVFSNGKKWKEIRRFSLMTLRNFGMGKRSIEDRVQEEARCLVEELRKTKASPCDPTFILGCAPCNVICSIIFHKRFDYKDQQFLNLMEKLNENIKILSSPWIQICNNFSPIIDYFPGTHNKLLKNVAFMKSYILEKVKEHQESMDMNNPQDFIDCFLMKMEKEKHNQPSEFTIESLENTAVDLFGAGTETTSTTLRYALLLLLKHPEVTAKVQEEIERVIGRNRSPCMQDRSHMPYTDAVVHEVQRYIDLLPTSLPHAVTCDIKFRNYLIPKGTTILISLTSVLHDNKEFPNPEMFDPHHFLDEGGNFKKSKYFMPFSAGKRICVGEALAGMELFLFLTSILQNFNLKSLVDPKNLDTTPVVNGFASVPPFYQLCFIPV

[6] = system: human leukemia K562 (K562/S) cell line; experiment: SRB cytotoxicity assay, K562/S; details: K562, read-out: Cytotoxicity IC50 against K562/S
Experimental: as §1

[7] = system: doxorubicin-resistant K562 (K562/R) cell line; experiment: SRB cytotoxicity assay, doxorubicin-resistant K562; details: Homo sapiens, K-562R, read-out: Cytotoxicity IC50 against K562/R
Experimental: as §1

[8] = Homo sapiens, K562, read-out: Cytotoxicity IC50 against K562/S

Compound: 30-hydroxygambogic acid [compound 1]
- IC50 [1]: 1270 ± 150 nM
- IC50 [2]: 2890 ± 350 nM

Compound: CC(C)=CCC[C@]1(C)C=Cc2c(O)c3c(c(CC=C(C)C)c2O1)O[C@]12C(=C[C@@H]4C[C@H]1C(C)(C)O[C@@]2(C/C=C(/C)C(=O)O)C4=O)C3=O (single isomer, unassigned) [Epimer 1, gambogic acid]
- IC50 [3, 8]: 890 nM
- Inhibitory effect toward five human cytochrome P-450 enzymes other than CYP2C9 [4]: little inhibitory effects
- IC50 ([5]; Homo sapiens, K-562R): 1320 nM

Compound: CC(C)=CCCC1(C)C=Cc2c(O)c3c(c(CC=C(C)C)c2O1)OC12C(=CC4CC1C(C)(C)OC2(CC=C(C)C(=O)O)C4=O)C3=O (single isomer, unassigned; epimer 2) [Epimer 2, epigambogic acid]
- CYP2C9 inhibitory effect, S-epimer relative to R-epimer (CYP2C9): 20 folds
- IC50 ([3]; read-out: Cytotoxicity IC50 against K562/S, K562/S, Example 1 MTT assay, Table 4 columns marked ^a): 860 nM
- Inhibitory effect toward five human cytochrome P-450 enzymes other than CYP2C9 [4]: little inhibitory effects
- IC50 ([5]; doxorubicin-resistant K562/R, Example 1 MTT assay, Table 4 columns marked ^a): 1110 nM

Compound: COc1cccc2c1C(=O)c1c(O)c3c(c(O)c1C2=O)C[C@@](O)(C(=O)CO)C[C@@H]3O[C@H]1C[C@H](N)[C@H](O)[C@H](C)O1 [Doxorubicin, doxorubicin, reference compound]
- IC50 [3, 8]: 660 nM
- IC50 [6]: 110 ± 10 nM
- IC50 ([5]; Homo sapiens, K-562R, doxorubicin-resistant K562/R, Example 1 MTT assay, Table 4 columns marked ^a): 10800 nM
- IC50 [7]: 1790 ± 170 nM

Compound: 30-hydroxyepigambogic acid [compound 2]
- IC50 [1]: 3610 ± 170 nM
- IC50 [2]: 4490 ± 310 nM
